Measured values published in US20100256145A1, “USE OF KCNQ POTASSIUM CHANNEL OPENERS FOR REDUCING SYMPTOMS OF OR TREATING DISORDERS OR CONDITIONS WHEREIN THE DOPAMINERGIC SYSTEM IS DISRUPTED” (H. LUNDBECK A/S, priority 2007, published 2010).
Marks after values point to notes of the source that are not given here.

Experiments:
[1] = test system: choice of the large-but-delayed reward (impulsivity); assay: Rat T-maze procedure: large-but-delayed vs small-but-immediate reward; assay type: in vivo; settings: juvenile Wistar rats; for % Choice of the large but delayed reward on Control sessions: placebo administered before control (pre-drug and post-drug) sessions of the same group
Method: Subjects. male Wistar AF rats (28-41 days old) (Centre d′Elevage René Janvier, France) were used. […] During the whole study, tap water was provided ad libitum. Food was restricted to 5-10 g/day/animal in order to maintain animals at 65-75% of their free feeding weight
Experimental procedure. The experiments were performed in two identical T-maze apparatus constructed from opaque grey plastic tubing and consisting of a starting runway (30 cm long) and two arms (35 cm long) each leading to a rectangular black plastic goal box (18 cm large, 30 cm wide, 10 cm high). Removable grey plastic guillotine doors could be inserted into the vertical clefts, situated at the entry of the starting runway and at each end of the arms. One of the goal-boxes (left or right, depending on the rats) was constantly provided with a large reward, the other with a small reward. Large and small rewards consisted, respectively, of 5 and 1 pellets (20 mg, Technical & Scientific Equipment GmbH, Germany). The pellets were placed in a translucent food-cup before each trial.
First phase: habituation. Animals were first subjected to two 5-min sessions of habituation. The rat was gently introduced in the starting runway, which then was closed with a guillotine door inserted in the cleft (referred to as c0 in FIG. 1). The animal was allowed to freely explore the apparatus and to eat food rewards placed in the food cups.
Second phase: pretraining. After a door was placed in the cleft c2 near each goal-box, the rat was introduced in the starting runway. When it entered one of the two arms, a door was inserted behind it in the cleft c1 near the choice area and the door placed in cleft c2 was removed. As soon as the animal entered the goal-box, the door was placed again in the cleft c2. The rat was removed from the goal-box as soon as the pellets were eaten (usually within less than 1 min). The animal was then returned to its home cage for an intertrial interval of 2 to 3 min. Each rat was submitted one to five times/day to five trials sessions in this procedure. Training was initiated when the rat selected the arm giving access to the large reward in more than 14 out of 15 trials.
Third phase: training. Rats underwent one to five times/day five trials training sessions during which a delay was introduced before access to the large reward. After a door was placed in the cleft c2 near each goal-box, the rat was introduced in the starting runway. When it entered one of the two arms, a second door was inserted behind it in the cleft c1 near the choice area, so that rat selecting the arm leading to the large reward could be detained in this arm for a period (referred to as the waiting delay) before having access to the reinforcement. Otherwise, if the animal selected the arm leading to the small reward, the door placed in the cleft c2 was immediately opened, allowing the animal to enter the goal-box. At the beginning of training, the waiting delay was 30 sec. Then, if the percentage of choices of the large and delayed reward remained high (i.e. ≧40%) for more than six sessions, it was increased to 45 sec, and if necessary to 60 sec, 90 sec and finally 120 sec. Drug testing began when the animal selected the large and delayed reward in two trials out of five (or less) in two consecutive sessions and in one trial out of five (or less) in the following session.
Drug testing was conducted over six consecutive test-sessions of five trials each, during which the access to the large reward was preceded by the waiting delay. Test sessions were: Two control pre-drug sessions: control pre-drug session 1 and control pre-drug session 2; Two drug sessions: drug session 1 and drug session 2; Two control post-drug sessions: control post-drug session 1 and control post-drug session 2.

[2] = test system: social behaviours in the rat Tetradic Encounter test; assay: Rat Tetradic Encounter test; settings: for % of time Agonistic behaviour: sum of defensive and aggressive behaviour
[3] = test system: social behaviours in the Mutual Resident Intruder rat test; assay: Mutual Resident Intruder rat test; settings: for % of time Agonistic behaviour: sum of defensive and aggressive behaviour
[4] = 1 mg/kg s.c. 30 min before test
[5] = 5 mg/kg s.c. 30 min before test

SMILES | % Choice of the large but delayed reward on Control sessions [1] [%] | % of time Aggressive behaviour [2, 4] | % of time Defensive behaviour [2, 4] | % of time Friendly behaviour [2, 4] | % of time Non-social behaviour [2, 4] | % of time Agonistic behaviour [2, 4] | % of time Aggressive behaviour [2, 5] | % of time Defensive behaviour [2, 5] | % of time Friendly behaviour [2, 5] | % of time Non-social behaviour [2, 5] | % of time Agonistic behaviour [2, 5] | % of time Aggressive behaviour [3, 4] | % of time Defensive behaviour [3, 4] | % of time Friendly behaviour [3, 4] | % of time Non-social behaviour [3, 4] | % of time Agonistic behaviour [3, 4] | % of time Aggressive behaviour [3, 5] | % of time Defensive behaviour [3, 5] | % of time Friendly behaviour [3, 5] | % of time Non-social behaviour [3, 5] | also measured
CNCC[C@@H](Oc1ccccc1C)c1ccccc1 [Atomoxetine, reference compound] | 10.7 ± 2.3 | – | – | – | – | – | – | – | – | – | – | – | – | – | – | – | – | – | – | – | % Choice of the large but delayed reward on Drug sessions ([1]; 1 mg/kg i.p. 30 min before the test): 40.0 ± 2.2 %
C[C@H](N)Cc1ccccc1 [Amphetamine, D-amphetamine, reference compound] | – | – | – | – | – | – | – | – | – | – | – | – | – | – | – | – | – | – | – | – | % of time Aggressive behaviour ([2]; 0.5 mg/kg (positive control)): 0.1*** % of time; % of time Defensive behaviour ([2]; 0.5 mg/kg (positive control)): 1.2*** % of time; % of time Friendly behaviour ([2]; 0.5 mg/kg (positive control)): 17.3* % of time; % of time Non-social behaviour ([2]; 0.5 mg/kg (positive control)): 81.4*** % of time; % of time Agonistic behaviour ([2]; 0.5 mg/kg (positive control)): 1.4*** % of time; % of time Aggressive behaviour ([3]; 0.5 mg/kg (positive control)): 3.9*** % of time; % of time Defensive behaviour ([3]; 0.5 mg/kg (positive control)): 4.0*** % of time; % of time Friendly behaviour ([3]; 0.5 mg/kg (positive control)): 5.3 % of time; % of time Non-social behaviour ([3]; 0.5 mg/kg (positive control)): 86.8*** % of time; % of time Agonistic behaviour ([3]; 0.5 mg/kg (positive control)): 7.9*** % of time
Cc1cc(N2CCOCC2)nc(C)c1NC(=O)CC(C)(C)C [Compound 3, N-(2,4-dimethyl-6-morpholin-4-yl-pyridin-3-yl)-3,3-dimethylbutyramide] | 8.3 ± 2.8 | 5.9 % of time | 8.5 % of time | 20.2 % of time | 65.4 % of time | 14.4 % of time | 0.1** % of time | 0.0*** % of time | 20.0 % of time | 79.9*** % of time | 0.1*** % of time | 12.0 % of time | 12.3 % of time | 3.4 % of time | 72.3 % of time | 24.3 % of time | 0.2*** % of time | 0.2*** % of time | 2.3 % of time | 97.4*** % of time | % Choice of the large but delayed reward on Drug sessions ([1]; 2.5 mg/kg s.c. 30 min before the test): 25.0 ± 6.7 %; % of time Agonistic behaviour [3, 5]: 0.3*** % of time
COc1cc(N2CCOCC2)cc(C)c1NC(=O)CC1CCCC1 [Compound 2] | 11.7 ± 2.5 | 5.3 % of time | 7.2 % of time | 18.2* % of time | 69.3 % of time | 12.5 % of time | 0.4** % of time | 0.8*** % of time | 26.2 % of time | 72.7** % of time | 1.2*** % of time | 15.5 % of time | 17.3 % of time | 4.0 % of time | 63.1 % of time | 32.8*** % of time | 0.7*** % of time | 0.2*** % of time | 2.4 % of time | 96.6*** % of time | % Choice of the large but delayed reward on Drug sessions ([1]; 1 mg/kg s.c. 30 min before the test): 33.3 ± 3.3 %; % of time Agonistic behaviour [3, 5]: 0.9*** % of time
